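Each compound was tested at five concentrations against cells in 96-well plates for 48 hours. GI50 marks 50% less growth. Definition used: TGI = concentration required for complete inhibition of growth.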
How the values were obtained:
Test in all cases: NCI tumour cell line growth inhibition, 48 h
K-562 leukemia = system: K-562 leukemia
MOLT-4 leukemia = system: MOLT-4 leukemia
SW-620 colon = system: SW-620 colon
UACC-257 melanoma = system: UACC-257 melanoma
HCC-2998 colon = system: HCC-2998 colon
T-47D breast = system: T-47D breast
OVCAR-3 ovarian = system: OVCAR-3 ovarian
OVCAR-4 ovarian = system: OVCAR-4 ovarian
SN12C renal = system: SN12C renal
TK-10 renal = system: TK-10 renal
MDA-MB-231 breast = system: MDA-MB-231 breast
A549 NSCLC = system: A549 NSCLC
CCRF-CEM leukemia = system: CCRF-CEM leukemia
SNB-19 CNS = system: SNB-19 CNS
COLO 205 colon = system: COLO 205 colon
BT-549 breast = system: BT-549 breast
MCF7 breast = system: MCF7 breast
786-0 renal = system: 786-0 renal
IGROV1 ovarian = system: IGROV1 ovarian
OVCAR-5 ovarian = system: OVCAR-5 ovarian
CAKI-1 renal = system: CAKI-1 renal
HCT-15 colon = system: HCT-15 colon
SNB-75 CNS = system: SNB-75 CNS
HS 578T breast = system: HS 578T breast
SF-268 CNS = system: SF-268 CNS
HL-60(TB) leukemia = system: HL-60(TB) leukemia
ACHN renal = system: ACHN renal
SK-OV-3 ovarian = system: SK-OV-3 ovarian
A498 renal = system: A498 renal
PC-3 prostate = system: PC-3 prostate
NCI/ADR-RES ovarian = system: NCI/ADR-RES ovarian
HOP-62 NSCLC = system: HOP-62 NSCLC
EKVX NSCLC = system: EKVX NSCLC
UACC-62 melanoma = system: UACC-62 melanoma
UO-31 renal = system: UO-31 renal
NCI-H522 lung = system: NCI-H522 lung
U251 CNS = system: U251 CNS
RXF 393 renal = system: RXF 393 renal
RPMI-8226 leukemia = system: RPMI-8226 leukemia
SR leukemia = system: SR leukemia
NCI-H226 lung = system: NCI-H226 lung
MALME-3M melanoma = system: MALME-3M melanoma
HCT-116 colon = system: HCT-116 colon
HT29 colon = system: HT29 colon
M14 melanoma = system: M14 melanoma
NCI-H460 lung = system: NCI-H460 lung
SK-MEL-28 melanoma = system: SK-MEL-28 melanoma
SF-539 CNS = system: SF-539 CNS
DU-145 prostate = system: DU-145 prostate
OVCAR-8 ovarian = system: OVCAR-8 ovarian
SF-295 CNS = system: SF-295 CNS
MDA-MB-435 = system: MDA-MB-435
SK-MEL-5 melanoma = system: SK-MEL-5 melanoma
LOX IMVI melanoma = system: LOX IMVI melanoma
SK-MEL-2 melanoma = system: SK-MEL-2 melanoma
KM12 colon = system: KM12 colon
HOP-92 NSCLC = system: HOP-92 NSCLC

Compound: CCOc1ccc([C@H]2C(C(=O)c3ccc(Cl)cc3)C3(N[C@@H]2c2ccccc2)C(=O)Nc2ccc(Br)cc23)cc1 (some centres undefined)
- GI50 (K-562 leukemia): 25.3 µM
- TGI (K-562 leukemia): > 100 µM
- GI50 (MOLT-4 leukemia): 18.2 µM
- TGI (MOLT-4 leukemia): 73.8 µM
- GI50 (SW-620 colon): 18.5 µM
- TGI (SW-620 colon): 40.9 µM
- GI50 (UACC-257 melanoma): 14.7 µM
- TGI (UACC-257 melanoma): 29 µM
- GI50 (HCC-2998 colon): 15.7 µM
- TGI (HCC-2998 colon): 31 µM
- GI50 (T-47D breast): 14.2 µM
- TGI (T-47D breast): 35.2 µM
- GI50 (OVCAR-3 ovarian): 17.5 µM
- TGI (OVCAR-3 ovarian): 38 µM
- GI50 (OVCAR-4 ovarian): 14.3 µM
- TGI (OVCAR-4 ovarian): 28.1 µM
- GI50 (SN12C renal): 15.2 µM
- TGI (SN12C renal): 31.2 µM
- GI50 (TK-10 renal): 13.7 µM
- TGI (TK-10 renal): 28.8 µM
- GI50 (MDA-MB-231 breast): 15.8 µM
- TGI (MDA-MB-231 breast): 31.8 µM
- GI50 (A549 NSCLC): 13.9 µM
- TGI (A549 NSCLC): 28.9 µM
- GI50 (CCRF-CEM leukemia): 23.1 µM
- TGI (CCRF-CEM leukemia): 72 µM
- GI50 (SNB-19 CNS): 15.2 µM
- TGI (SNB-19 CNS): 29.7 µM
- GI50 (COLO 205 colon): 15 µM
- TGI (COLO 205 colon): 30.1 µM
- GI50 (BT-549 breast): 15.6 µM
- TGI (BT-549 breast): 29.9 µM
- GI50 (MCF7 breast): 14 µM
- TGI (MCF7 breast): 36.7 µM
- GI50 (786-0 renal): 15.4 µM
- TGI (786-0 renal): 30.1 µM
- GI50 (IGROV1 ovarian): 14.2 µM
- TGI (IGROV1 ovarian): 31.6 µM
- GI50 (OVCAR-5 ovarian): 14.6 µM
- TGI (OVCAR-5 ovarian): 29.4 µM
- GI50 (CAKI-1 renal): 13.1 µM
- TGI (CAKI-1 renal): 26.2 µM
- GI50 (HCT-15 colon): 16.1 µM
- TGI (HCT-15 colon): 35.3 µM
- GI50 (SNB-75 CNS): 11.3 µM
- TGI (SNB-75 CNS): 23.7 µM
- GI50 (HS 578T breast): 17.9 µM
- TGI (HS 578T breast): 47.8 µM
- GI50 (SF-268 CNS): 17.3 µM
- TGI (SF-268 CNS): 39.4 µM
- GI50 (HL-60(TB) leukemia): 23.1 µM
- TGI (HL-60(TB) leukemia): 63.1 µM
- GI50 (ACHN renal): 15 µM
- TGI (ACHN renal): 28.6 µM
- GI50 (SK-OV-3 ovarian): 14.5 µM
- TGI (SK-OV-3 ovarian): 28.3 µM
- GI50 (A498 renal): 14.3 µM
- TGI (A498 renal): 28.8 µM
- GI50 (PC-3 prostate): 13.8 µM
- TGI (PC-3 prostate): 27.6 µM
- GI50 (NCI/ADR-RES ovarian): 19.8 µM
- TGI (NCI/ADR-RES ovarian): 44.8 µM
- GI50 (HOP-62 NSCLC): 14.3 µM
- TGI (HOP-62 NSCLC): 28 µM
- GI50 (EKVX NSCLC): 15.9 µM
- TGI (EKVX NSCLC): 35.4 µM
- GI50 (UACC-62 melanoma): 13.3 µM
- TGI (UACC-62 melanoma): 27.1 µM
- GI50 (UO-31 renal): 12.9 µM
- TGI (UO-31 renal): 25.6 µM
- GI50 (NCI-H522 lung): 14.2 µM
- TGI (NCI-H522 lung): 28.2 µM
- GI50 (U251 CNS): 15 µM
- TGI (U251 CNS): 29.8 µM
- GI50 (RXF 393 renal): 13.1 µM
- TGI (RXF 393 renal): 26.1 µM
- GI50 (RPMI-8226 leukemia): 22 µM
- TGI (RPMI-8226 leukemia): 70.8 µM
- GI50 (SR leukemia): 15.5 µM
- TGI (SR leukemia): 44 µM
- GI50 (NCI-H226 lung): 15.1 µM
- TGI (NCI-H226 lung): 32.6 µM
- GI50 (MALME-3M melanoma): 14.7 µM
- TGI (MALME-3M melanoma): 28.5 µM
- GI50 (HCT-116 colon): 14.6 µM
- TGI (HCT-116 colon): 29.7 µM
- GI50 (HT29 colon): 14.9 µM
- TGI (HT29 colon): 31 µM
- GI50 (M14 melanoma): 15 µM
- TGI (M14 melanoma): 30.1 µM
- GI50 (NCI-H460 lung): 16.7 µM
- TGI (NCI-H460 lung): 35.5 µM
- GI50 (SK-MEL-28 melanoma): 16.1 µM
- TGI (SK-MEL-28 melanoma): 30.4 µM
- GI50 (SF-539 CNS): 15.9 µM
- TGI (SF-539 CNS): 30.5 µM
- GI50 (DU-145 prostate): 17.7 µM
- TGI (DU-145 prostate): 38 µM
- GI50 (OVCAR-8 ovarian): 16.4 µM
- TGI (OVCAR-8 ovarian): 32 µM
- GI50 (SF-295 CNS): 16.1 µM
- TGI (SF-295 CNS): 30.3 µM
- GI50 (MDA-MB-435): 15.9 µM
- TGI (MDA-MB-435): 30.3 µM
- GI50 (SK-MEL-5 melanoma): 18 µM
- TGI (SK-MEL-5 melanoma): 32.7 µM
- GI50 (LOX IMVI melanoma): 15.7 µM
- TGI (LOX IMVI melanoma): 30.4 µM
- GI50 (SK-MEL-2 melanoma): 14.1 µM
- TGI (SK-MEL-2 melanoma): 27.9 µM
- GI50 (KM12 colon): 17.1 µM
- TGI (KM12 colon): 49.1 µM
- GI50 (HOP-92 NSCLC): 7.75 µM
- TGI (HOP-92 NSCLC): 21.8 µM
